Measured values: US20180251431A1 (VERTEX PHARMACEUTICALS INCORPORATED, priority 2016, published 2018)

tested on: HEK293 cells; assay: HEK293 VLCFA-LPC IC50 determination (13C-labeled C26:0 LPC by UHPLC/MS); assay type: cell-based, human; details: Homo sapiens, HEK293, 48 h, average of one or more replicates; 13C-labeled C26:0 LPC, 48 hours; read-out: Average HEK293 IC50
Method in brief: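 Suspension HEK293 cells (final 0.5 million/mL after mixing with equal volume) incubated 48 hours with compound plus 13C-acetate (1.0 mg/mL in added media), shaking at 37° C. Lipids extracted with hexane/isopropanol or methanol, C13:0 LPC standard. UHPLC/MS of 13C-labeled C26:0 LPC (638.500/104.100 m/z); IC50 by four-parameter fit.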

Row | Structure (SMILES) | IC50
1 | O=C(Nc1ccn(-c2ncncc2F)n1)C1(c2ccccc2F)CC1 [Compound 361, 1-(2-fluorophenyl)-N-[1-(5-fluoropyrimidin-4-yl)pyrazol-3-yl]cyclopropanecarboxamide] | 150 nM
2 | O=C(Nc1ccn(-c2cncc(F)c2)n1)[C@]1(c2ncccc2F)CC12CC2 (single isomer, unassigned) [Compound 499] | 740 nM

same assay, conditions: Homo sapiens, HEK293, HEK293 cells; average of one or more replicates; read-out: Average HEK293 IC50

Row | Structure (SMILES) | IC50
3 | O=C(Cc1ccccc1F)Nc1ccn(-c2ccc(F)cc2)n1 [Compound 183, 2-(2-fluorophenyl)-N-[1-(4-fluorophenyl)pyrazol-3-yl]acetamide] | 170 nM
4 | O=C(Nc1ccn(-c2ccccc2)n1)C1(c2ccncc2F)CC1 [Compound 280, 1-(3-fluoro-4-pyridyl)-N-(1-phenylpyrazol-3-yl)cyclopropanecarboxamide] | 770 nM
5 | O=C(Nc1ccn(-c2cncc(F)c2)n1)C1(c2ccccn2)CC1 [Compound 464, N-[1-(5-fluoro-3-pyridyl)pyrazol-3-yl]-1-(2-pyridyl)cyclopropanecarboxamide] | 130 nM
6 | N#Cc1ccccc1C1(C(=O)Nc2ccn(-c3ccccc3)n2)CC1 [Compound 242, 1-(2-cyanophenyl)-N-(1-phenylpyrazol-3-yl)cyclopropanecarboxamide] | > 2000 nM
7 | O=C(Nc1ccn(-c2ccccc2)n1)C1(c2ccccc2)CCCC1 [Compound 34, 1-phenyl-N-(1-phenylpyrazol-3-yl)cyclopentanecarboxamide] | 2100 nM
8 | O=C(Nc1ccn(-c2ccc(C(F)(F)F)cc2)n1)C1(c2ccccc2F)CC1 [Compound 154, 1-(2-fluorophenyl)-N-[1-[4-(trifluoromethyl)phenyl]pyrazol-3-yl]cyclopropanecarboxamide] | 360 nM
9 | Cc1cc(NC(=O)C2(c3ncccn3)CC2)nn1-c1ccc(F)cc1F [Compound 533, N-[1-(2,4-difluorophenyl)-5-methyl-pyrazol-3-yl]-1-pyrimidin-2-yl-cyclopropanecarboxamide] | > 2000 nM
10 | O=C(Cc1ccccc1)Nc1ccn(-c2ccccc2F)n1 [Compound 185, N-[1-(2-fluorophenyl)pyrazol-3-yl]-2-phenyl-acetamide] | 470 nM
11 | O=C(Cc1cccs1)Nc1ccn(-c2ccccc2)n1 [Compound 37, N-(1-phenylpyrazol-3-yl)-2-(2-thienyl)acetamide] | 64 nM
12 | O=C(Nc1ccn(-c2cc(F)ncc2F)n1)C1(c2ccccc2)CC1 [Compound 115, N-[1-(2,5-difluoro-4-pyridyl)pyrazol-3-yl]-1-phenyl-cyclopropanecarboxamide] | 120 nM
13 | O=C(Cc1ccccc1)Nc1ccn(-c2cc(F)ncc2F)n1 [Compound 114, N-[1-(2,5-difluoro-4-pyridyl)pyrazol-3-yl]-2-phenyl-acetamide] | 1200 nM
14 | O=C(Nc1ccn(-c2ccccc2)n1)[C@]1(c2ccccc2)CC12CCCC2 [Compound 145, (2R)-2-phenyl-N-(1-phenylpyrazol-3-yl)spiro[2.4]heptane-2-carboxamide] | > 5000 nM
15 | CC1(C)CC1(C(=O)Nc1ccn(-c2ccccc2)n1)c1ccccc1 (stereo not shown) [Compound 136, 2,2-dimethyl-1-phenyl-N-(1-phenylpyrazol-3-yl)cyclopropanecarboxamide] | 940 nM
16 | O=C(Cc1ccc(F)cc1)Nc1ccn(-c2ccc(Cl)nc2)n1 [Compound 105, N-[1-(6-chloro-3-pyridyl)pyrazol-3-yl]-2-(4-fluorophenyl)acetamide] | > 5000 nM
17 | O=C(Cn1ccnc1)Nc1ccn(-c2ccnc(F)c2)n1 [Compound 286, N-[1-(2-fluoro-4-pyridyl)pyrazol-3-yl]-2-imidazol-1-yl-acetamide] | 5000 nM
18 | COc1cc(-n2ccc(NC(=O)C3(c4cnccn4)CC3)n2)ccn1 [Compound 491, N-[1-(2-methoxy-4-pyridyl)pyrazol-3-yl]-1-pyrazin-2-yl-cyclopropanecarboxamide] | > 5000 nM
19 | Cn1cccc1CC(=O)Nc1ccn(-c2ccnc(F)c2)n1 [Compound 309, N-[1-(2-fluoro-4-pyridyl)pyrazol-3-yl]-2-(1-methylpyrrol-2-yl)acetamide] | > 5000 nM
